Data from PubChem BioAssay (NCI).
Where “and” joins values, the source holds several entries; their conditions need not be identical. Identical values can stand only once.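 Protocol summary: plate cells (96-well), add compound at 5 concentrations, incubate 48 h, interpolate endpoints linearly. At the GI50, growth is halved. TGI is the concentration that stops growth completely.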

test system: HOP-18 NSCLC; experiment: NCI-60 cell line screen, 48 h

| SMILES | TGI [µM] |
| --- | --- |
| CCNC(=O)/C(=C/c1ccc(OC)cc1)c1cc(OC)c(OC)c(OC)c1 | > 100 |
| N#CC(=Nc1ccccc1N(C(=O)c1ccccc1)C(=O)c1ccccc1)c1ccccc1 | > 100 |
| COC(=O)C(=O)C(C(C)=O)C(=O)NCc1ccc(OC)c(OC)c1 (stereo unspecified) | > 100 |
| Nc1c(-c2ccccc2-c2c(N)[n+]([O-])c3ccccc3[n+]2[O-])[n+]([O-])c2ccccc2[n+]1[O-] | > 86 |
| CCOC(=O)NC(=O)c1cn(C(CC)COC(=O)NCCCCCCNC(=O)OCC(CC)n2cc(C(=O)NC(=O)OCC)c(=O)[nH]c2=O)c(=O)[nH]c1=O (stereo unspecified) | > 100 |
| O=C(CC(=O)C1CCOC1=O)C(=O)Nc1cccc(Cl)c1 (stereo unspecified) | > 100 |
| Cc1cccc(C2=C/C(=C(\SS/C(C(=O)c3ccc(OCC(=O)O)c(Cl)c3Cl)=C3\C=C(c4cccc(C)c4)SS3)C(=O)c3ccc(OCC(=O)O)c(Cl)c3Cl)SS2)c1 | 50.5 |
| CC(=O)N1CCN(c2ccc(OCC3COC(Cn4ccnc4)(c4ccc(Cl)cc4Cl)O3)cc2)CC1 (stereo unspecified) | > 100 |
| CC1=C(C#N)C(=O)CC(c2ccc(Cl)cc2)N(C)N1 (stereo unspecified) | > 100 |
| Nc1nc(-c2ccc(Cl)c([N+](=O)[O-])c2)cs1 | > 100 |
| COc1cc(/C=C2\[C@H]3c4c(c(OC)c(C)c(OC)c4OC)CC(C(=O)N2Cc2ccccc2)N3C)c(OC)c(C)c1OC | 50.2 |
| CN(C)C(=S)SSC(=S)N(C)C | > 100 |
| O=C(N/C(=C\c1ccc([N+](=O)[O-])cc1)c1nc2ccccc2[nH]1)c1ccccc1 | > 100 |
| COC(=O)/C([Se]c1c(C)cc(C)cc1C)=C(/[Se]c1c(C)cc(C)cc1C)C(=O)OC | > 100 |
| NC(=O)C(=O)CC(=O)c1ccccc1NC1=CC(=O)C(=O)c2ccccc21 | > 100 |
| Cc1cc2c(c(C(N)=O)c1C)-c1ccccc1C2=O | > 100 |
| Cc1ccccc1C1=[N+]([O-])c2ccc(Cl)cc2C1=O | 35.4 |
| Cc1[nH]c2ccccc2c1C1Cc2ccccc2N1C(=O)C#Cc1ccc([N+](=O)[O-])cc1 (stereo unspecified) | > 100 |
| CCOC(=O)NC(=O)c1cn(C2CCCCC2)c(=O)[nH]c1=O | > 100 |

test system: LOX IMVI melanoma; experiment: NCI-60 cell line screen, 48 h

| SMILES | TGI | GI50 |
| --- | --- | --- |
| Nc1ccccc1C(=O)/C=C/c1c(O)ccc2ccccc12 | 44.9 µM | – |
| CCC1CN2CCc3cc(OC)c(OC)cc3C2CC1CC1c2cc(OC)c(OC)cc2CCN1C(=O)C1CCCN1 (stereo unspecified) | 72.4 µM | – |
| CC(C(=O)c1ccc(Cl)cc1)/C(=N/NC(=O)NN)C(=O)Nc1cccc(C(F)(F)F)c1 (stereo unspecified) | > 100 µM | – |
| CCOP(=O)(OCC)C(C(=O)OC)C(=O)C(=O)Nc1ccc(Cl)cc1Cl (stereo unspecified) | > 100 µM | – |
| COc1cccc(/C=N/[N-]C(=O)c2ccncc2)c1[O-].COc1cccc(/C=N/[N-]C(=O)c2ccncc2)c1[O-].[O]=[U](=[O])([OH2+])[OH2+] | > 100 µM | 4.94 µM |
| ClC(Cl)=C1C(=C(Cl)Cl)C(Cl)(Cl)C1(Cl)Cl | 0.579 µM and 1.86 µM | – |
| CC(C)(C)c1ccc2c(c1)S(=O)(=O)Nc1ccc(Cl)cc1NS(=O)(=O)c1cc(C(C)(C)C)ccc1OCCOCCOCCO2 | > 100 µM | – |
| CO[C@H]1Nc2c(ccc(C)c2O)C(=O)N2C=C(/C=C/C(N)=O)C[C@@H]12 | 1.29 µM | – |
| CCNC(=O)/C(=C/c1ccc(OC)cc1)c1cc(OC)c(OC)c(OC)c1 | > 100 µM | – |
| N#CC(=Nc1ccccc1N(C(=O)c1ccccc1)C(=O)c1ccccc1)c1ccccc1 | > 100 µM | – |
| COC(=O)C(=O)C(C(C)=O)C(=O)NCc1ccc(OC)c(OC)c1 (stereo unspecified) | > 100 µM | – |
| Nc1c(-c2ccccc2-c2c(N)[n+]([O-])c3ccccc3[n+]2[O-])[n+]([O-])c2ccccc2[n+]1[O-] | > 100 µM | – |
| CCOC(=O)NC(=O)c1cn(C(CC)COC(=O)NCCCCCCNC(=O)OCC(CC)n2cc(C(=O)NC(=O)OCC)c(=O)[nH]c2=O)c(=O)[nH]c1=O (stereo unspecified) | > 100 µM | – |
| O=C(CC(=O)C1CCOC1=O)C(=O)Nc1cccc(Cl)c1 (stereo unspecified) | > 100 µM | – |
| CCN1c2ccccc2-c2c3c1cc(C)cc3c1ccccc1[n+]2CC | 1.89 µM | – |
| Cc1cccc(C2=C/C(=C(\SS/C(C(=O)c3ccc(OCC(=O)O)c(Cl)c3Cl)=C3\C=C(c4cccc(C)c4)SS3)C(=O)c3ccc(OCC(=O)O)c(Cl)c3Cl)SS2)c1 | 18 µM | – |
| CC(=O)N1CCN(c2ccc(OCC3COC(Cn4ccnc4)(c4ccc(Cl)cc4Cl)O3)cc2)CC1 (stereo unspecified) | 36 µM | – |
| O=C(Cc1nc2c3c(ccc2[nH]c1=O)C(=O)c1ccccc1C3=O)C(=O)Nc1ccccc1[N+](=O)[O-] | 44.8 µM | – |
| CC1=C(C#N)C(=O)CC(c2ccc(Cl)cc2)N(C)N1 (stereo unspecified) | > 100 µM | – |
| Nc1nc(-c2ccc(Cl)c([N+](=O)[O-])c2)cs1 | > 100 µM | – |
| COc1cc(/C=C2\[C@H]3c4c(c(OC)c(C)c(OC)c4OC)CC(C(=O)N2Cc2ccccc2)N3C)c(OC)c(C)c1OC | 33.4 µM | – |
| CN(C)C(=S)SSC(=S)N(C)C | 28.8 µM and 21.4 µM and > 55 µM | 14.9 µM and 5.4 µM and 22.7 µM |
| COC(=O)/C([Se]c1c(C)cc(C)cc1C)=C(/[Se]c1c(C)cc(C)cc1C)C(=O)OC | > 100 µM | – |
| NC(=O)C(=O)CC(=O)c1ccccc1NC1=CC(=O)C(=O)c2ccccc21 | 36.1 µM | – |
| Cc1cc2c(c(C(N)=O)c1C)-c1ccccc1C2=O | > 100 µM | – |
| COC(=O)/C(=N/O)C(C(=O)C=C(C)C)C(=O)C(=O)Nc1nc2ccc([N+](=O)[O-])cc2s1 (stereo unspecified) | 93.1 µM | – |
| Cc1ccccc1C1=[N+]([O-])c2ccc(Cl)cc2C1=O | 20.2 µM | – |
| Cc1[nH]c2ccccc2c1C1Cc2ccccc2N1C(=O)C#Cc1ccc([N+](=O)[O-])cc1 (stereo unspecified) | > 100 µM | – |
| CCOC(=O)NC(=O)c1cn(C2CCCCC2)c(=O)[nH]c1=O | > 100 µM | – |

test system: M19-MEL melanoma; experiment: NCI-60 cell line screen, 48 h

| SMILES | TGI [µM] | GI50 [µM] |
| --- | --- | --- |
| Nc1ccccc1C(=O)/C=C/c1c(O)ccc2ccccc12 | 43.4 | – |
| CCC1CN2CCc3cc(OC)c(OC)cc3C2CC1CC1c2cc(OC)c(OC)cc2CCN1C(=O)C1CCCN1 (stereo unspecified) | 36.6 | – |
| CC(C(=O)c1ccc(Cl)cc1)/C(=N/NC(=O)NN)C(=O)Nc1cccc(C(F)(F)F)c1 (stereo unspecified) | > 100 | – |
| CCOP(=O)(OCC)C(C(=O)OC)C(=O)C(=O)Nc1ccc(Cl)cc1Cl (stereo unspecified) | > 100 | – |
| CC(C)=C1CCC(CN(C)C)C1=O (stereo unspecified) | > 100 | – |
| COc1cccc(/C=N/[N-]C(=O)c2ccncc2)c1[O-].COc1cccc(/C=N/[N-]C(=O)c2ccncc2)c1[O-].[O]=[U](=[O])([OH2+])[OH2+] | > 100 | 5.83 |
| ClC(Cl)=C1C(=C(Cl)Cl)C(Cl)(Cl)C1(Cl)Cl | 9.1 | – |
| CC(C)(C)c1ccc2c(c1)S(=O)(=O)Nc1ccc(Cl)cc1NS(=O)(=O)c1cc(C(C)(C)C)ccc1OCCOCCOCCO2 | > 100 | – |
| CO[C@H]1Nc2c(ccc(C)c2O)C(=O)N2C=C(/C=C/C(N)=O)C[C@@H]12 | 0.0939 | – |
| CCNC(=O)/C(=C/c1ccc(OC)cc1)c1cc(OC)c(OC)c(OC)c1 | > 100 | – |
| N#CC(=Nc1ccccc1N(C(=O)c1ccccc1)C(=O)c1ccccc1)c1ccccc1 | > 100 | – |
| COC(=O)C(=O)C(C(C)=O)C(=O)NCc1ccc(OC)c(OC)c1 (stereo unspecified) | > 100 | – |
| Nc1c(-c2ccccc2-c2c(N)[n+]([O-])c3ccccc3[n+]2[O-])[n+]([O-])c2ccccc2[n+]1[O-] | 60.3 | – |
| CCOC(=O)NC(=O)c1cn(C(CC)COC(=O)NCCCCCCNC(=O)OCC(CC)n2cc(C(=O)NC(=O)OCC)c(=O)[nH]c2=O)c(=O)[nH]c1=O (stereo unspecified) | > 100 | – |
| O=C(CC(=O)C1CCOC1=O)C(=O)Nc1cccc(Cl)c1 (stereo unspecified) | > 100 | – |
| CCN1c2ccccc2-c2c3c1cc(C)cc3c1ccccc1[n+]2CC | 1.27 | – |
| Cc1cccc(C2=C/C(=C(\SS/C(C(=O)c3ccc(OCC(=O)O)c(Cl)c3Cl)=C3\C=C(c4cccc(C)c4)SS3)C(=O)c3ccc(OCC(=O)O)c(Cl)c3Cl)SS2)c1 | > 60.1 | – |
| CC(=O)N1CCN(c2ccc(OCC3COC(Cn4ccnc4)(c4ccc(Cl)cc4Cl)O3)cc2)CC1 (stereo unspecified) | 45.1 | – |
| O=C(Cc1nc2c3c(ccc2[nH]c1=O)C(=O)c1ccccc1C3=O)C(=O)Nc1ccccc1[N+](=O)[O-] | 79.5 | – |
| Nc1nc(-c2ccc(Cl)c([N+](=O)[O-])c2)cs1 | > 100 | – |
